Test results taken from US9309242B2, “Substituted pyrido[2,3-b]pyrazines as FGFR kinase inhibitors” (priority 2011, dated 2016).

Key:
[1] = target: T1, Ba/F3-FGFR1-transfected cells (Homo sapiens, UniProt P11362); experiment: Ba/F3-FGFR1 (minus IL3) cellular proliferation assay, Alamar Blue; assay type: cell-based
T1 construct: BAF3-FGFR1 (MIN IL3) pIC50; other: minus IL3
Outline: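 Viability was measured by resazurin reduction (fluorescence, 540 nm excitation/590 nm emission) after a 4 h Alamar Blue incubation. This followed 24 h of compound treatment at 37 °C, 5% CO2, of 20000 FGFR1-transfected Ba/F3 cells per well in 10% FBS RPMI-1640.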

[2] = target: Ba/F3-FGFR4-transfected cells (Homo sapiens, UniProt P22455); experiment: Ba/F3-FGFR4 cellular proliferation assay, Alamar Blue; assay type: cell-based
Outline: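 Proliferation of Ba/F3-FGFR4-transfected cells is gauged by Alamar Blue (resazurin) fluorescence after 24 hours of compound treatment in phenol red free RPMI-1640 with 10% FBS.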

FGFR2 (h) = FGFR2 (h) (Homo sapiens, UniProt P21802); experiment: FGFR2 (enzymatic assay), TR-FRET; assay type: biochemical; settings: enzymatic assay; read-out: FGFR 2 pIC50 (converted)
Chain of FGFR2 (h) (P21802 22-821): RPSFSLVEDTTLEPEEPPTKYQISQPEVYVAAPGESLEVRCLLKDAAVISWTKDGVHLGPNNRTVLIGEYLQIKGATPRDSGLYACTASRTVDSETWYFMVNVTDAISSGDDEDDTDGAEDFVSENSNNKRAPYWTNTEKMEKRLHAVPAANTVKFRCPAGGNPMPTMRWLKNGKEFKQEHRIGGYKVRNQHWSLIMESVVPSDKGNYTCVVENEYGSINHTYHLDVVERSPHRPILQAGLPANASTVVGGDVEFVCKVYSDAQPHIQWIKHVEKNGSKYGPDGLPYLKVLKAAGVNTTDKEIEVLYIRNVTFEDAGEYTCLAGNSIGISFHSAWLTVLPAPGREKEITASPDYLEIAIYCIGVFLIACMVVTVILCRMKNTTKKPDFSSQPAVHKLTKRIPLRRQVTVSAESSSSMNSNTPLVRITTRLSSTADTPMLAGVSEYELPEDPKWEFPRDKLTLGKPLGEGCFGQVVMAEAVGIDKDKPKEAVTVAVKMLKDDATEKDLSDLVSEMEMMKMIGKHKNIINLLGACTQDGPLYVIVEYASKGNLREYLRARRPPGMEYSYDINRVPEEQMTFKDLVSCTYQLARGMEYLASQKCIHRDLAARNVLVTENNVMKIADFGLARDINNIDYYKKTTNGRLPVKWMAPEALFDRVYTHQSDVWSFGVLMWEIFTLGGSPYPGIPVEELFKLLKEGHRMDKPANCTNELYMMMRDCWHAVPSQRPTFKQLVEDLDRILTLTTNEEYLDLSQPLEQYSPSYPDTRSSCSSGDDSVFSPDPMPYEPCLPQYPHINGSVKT
Outline: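 Compound (1% DMSO final) was combined with FGFR2 (h), 150 ng/ml, plus 0.4 μM ATP and 500 nM biotin-Flt3 in Mn2+-containing HEPES buffer at pH 7.5.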

FGFR1 (h) = FGFR1 (h) (Homo sapiens, UniProt P11362); experiment: FGFR1 (enzymatic assay), TR-FRET; assay type: biochemical; settings: read-out: FGFR 1 pIC50 (converted)
Chain of FGFR1 (h) (P11362 22-822): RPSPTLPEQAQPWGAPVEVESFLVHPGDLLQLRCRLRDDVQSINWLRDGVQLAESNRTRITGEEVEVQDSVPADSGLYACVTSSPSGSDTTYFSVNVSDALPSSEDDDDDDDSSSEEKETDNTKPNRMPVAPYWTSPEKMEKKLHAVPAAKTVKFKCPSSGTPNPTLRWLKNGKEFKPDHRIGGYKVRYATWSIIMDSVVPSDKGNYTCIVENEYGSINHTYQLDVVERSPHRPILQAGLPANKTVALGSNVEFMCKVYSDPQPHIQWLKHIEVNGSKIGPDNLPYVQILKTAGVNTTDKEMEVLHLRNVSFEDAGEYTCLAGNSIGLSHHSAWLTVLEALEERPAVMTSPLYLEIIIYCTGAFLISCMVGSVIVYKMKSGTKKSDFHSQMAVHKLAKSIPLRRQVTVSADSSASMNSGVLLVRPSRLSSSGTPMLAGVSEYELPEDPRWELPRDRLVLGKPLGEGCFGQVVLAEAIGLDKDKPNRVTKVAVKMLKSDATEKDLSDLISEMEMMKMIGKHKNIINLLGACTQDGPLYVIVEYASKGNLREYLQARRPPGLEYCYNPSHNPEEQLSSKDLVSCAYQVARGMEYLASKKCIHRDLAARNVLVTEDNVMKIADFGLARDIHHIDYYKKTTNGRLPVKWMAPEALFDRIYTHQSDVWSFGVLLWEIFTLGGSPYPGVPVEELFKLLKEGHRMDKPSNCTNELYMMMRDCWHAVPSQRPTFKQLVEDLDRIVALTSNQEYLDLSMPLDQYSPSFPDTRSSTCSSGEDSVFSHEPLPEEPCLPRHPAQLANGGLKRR

[3] = target: T2, Ba/F3-FGFR3-transfected cells (Homo sapiens, UniProt P22607); experiment: Ba/F3-FGFR3 (minus IL3) cellular proliferation assay, Alamar Blue; assay type: cell-based
T2 construct: BAF3-FGFR3 (MIN IL3) pIC50; other: minus IL3
T2 sequence (P22607 whole entry, change not shown): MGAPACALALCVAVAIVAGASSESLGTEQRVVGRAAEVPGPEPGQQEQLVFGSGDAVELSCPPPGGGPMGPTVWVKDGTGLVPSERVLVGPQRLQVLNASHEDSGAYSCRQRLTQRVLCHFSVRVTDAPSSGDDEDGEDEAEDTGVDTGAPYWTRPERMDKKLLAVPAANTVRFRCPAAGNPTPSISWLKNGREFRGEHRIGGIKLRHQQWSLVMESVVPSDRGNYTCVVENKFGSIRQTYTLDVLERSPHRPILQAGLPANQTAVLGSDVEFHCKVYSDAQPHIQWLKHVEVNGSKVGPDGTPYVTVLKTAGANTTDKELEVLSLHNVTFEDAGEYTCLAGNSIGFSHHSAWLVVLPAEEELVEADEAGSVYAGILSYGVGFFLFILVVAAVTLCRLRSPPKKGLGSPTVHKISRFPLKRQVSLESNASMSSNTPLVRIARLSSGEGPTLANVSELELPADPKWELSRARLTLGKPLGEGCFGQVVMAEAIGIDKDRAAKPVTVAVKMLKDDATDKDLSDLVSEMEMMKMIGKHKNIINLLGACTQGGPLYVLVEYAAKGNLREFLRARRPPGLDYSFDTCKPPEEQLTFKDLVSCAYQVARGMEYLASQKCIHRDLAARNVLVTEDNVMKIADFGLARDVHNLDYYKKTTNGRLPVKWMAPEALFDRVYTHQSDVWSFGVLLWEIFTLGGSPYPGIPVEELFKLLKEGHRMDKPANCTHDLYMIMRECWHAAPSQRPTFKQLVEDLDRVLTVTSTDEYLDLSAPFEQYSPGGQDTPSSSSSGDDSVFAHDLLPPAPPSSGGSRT
Outline: (§1)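 Viability readout was resazurin reduction (ex 540/em 590 nm) after 4 h, following 24 h compound treatment at 37 °C of FGFR3-transfected Ba/F3 cells (20000/well, RPMI-1640/10% FBS). IL3-dependent counterscreen used identical conditions plus 10 ng/ml murine IL3.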

FGFR4 (h) = FGFR4 (h) (Homo sapiens, UniProt P22455); experiment: FGFR4 (enzymatic assay), TR-FRET; assay type: biochemical; settings: FGFR 4 pIC50, enzymatic assay
[4] = system: Ba/F3-FGFR1-transfected cells; experiment: Ba/F3-FGFR1 (plus IL3) cellular proliferation assay, counterscreen with 10 ng/ml murine IL3; assay type: cell-based; settings: plus IL3 (10 ng/ml murine IL3, counterscreen); read-out: BAF3-FGFR1 (PLUS IL3) pIC50 (converted)
Outline: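 Ba/F3-FGFR1 cells (20000/well) in RPMI-1640 with 10% FBS exposed to compound for 24 h at 37° C., 5% CO2, then Alamar Blue (resazurin) added for 4 h; fluorescence read at ex 540/em 590 nm. Counterscreen run identically with 10 ng/ml murine IL3.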

FGFR3 (h) = FGFR3 (h) (Homo sapiens, UniProt P22607); experiment: FGFR3 (enzymatic assay), TR-FRET; assay type: biochemical; settings: read-out: FGFR 3 pIC50 (converted)
From the text: Time-Resolved Fluorescence Resonance Energy Transfer (TR-FRET) signal (ex340 nm.

[5] = system: Ba/F3-FGFR3-transfected cells; experiment: Ba/F3-FGFR3 (plus IL3) cellular proliferation assay, counterscreen with 10 ng/ml murine IL3; assay type: cell-based; settings: plus IL3 (10 ng/ml murine IL3, counterscreen); read-out: BAF3-FGFR3 (PLUS IL3) pIC50 (converted)
Outline: as §1

KDR (h) = KDR (h) (Homo sapiens, UniProt P35968); experiment: KDR (VEGFR2) (enzymatic assay), TR-FRET; assay type: biochemical; settings: read-out: VEGFR 2 (KDR) pIC50 (converted)
Chain of KDR (h) (P35968 20-1356): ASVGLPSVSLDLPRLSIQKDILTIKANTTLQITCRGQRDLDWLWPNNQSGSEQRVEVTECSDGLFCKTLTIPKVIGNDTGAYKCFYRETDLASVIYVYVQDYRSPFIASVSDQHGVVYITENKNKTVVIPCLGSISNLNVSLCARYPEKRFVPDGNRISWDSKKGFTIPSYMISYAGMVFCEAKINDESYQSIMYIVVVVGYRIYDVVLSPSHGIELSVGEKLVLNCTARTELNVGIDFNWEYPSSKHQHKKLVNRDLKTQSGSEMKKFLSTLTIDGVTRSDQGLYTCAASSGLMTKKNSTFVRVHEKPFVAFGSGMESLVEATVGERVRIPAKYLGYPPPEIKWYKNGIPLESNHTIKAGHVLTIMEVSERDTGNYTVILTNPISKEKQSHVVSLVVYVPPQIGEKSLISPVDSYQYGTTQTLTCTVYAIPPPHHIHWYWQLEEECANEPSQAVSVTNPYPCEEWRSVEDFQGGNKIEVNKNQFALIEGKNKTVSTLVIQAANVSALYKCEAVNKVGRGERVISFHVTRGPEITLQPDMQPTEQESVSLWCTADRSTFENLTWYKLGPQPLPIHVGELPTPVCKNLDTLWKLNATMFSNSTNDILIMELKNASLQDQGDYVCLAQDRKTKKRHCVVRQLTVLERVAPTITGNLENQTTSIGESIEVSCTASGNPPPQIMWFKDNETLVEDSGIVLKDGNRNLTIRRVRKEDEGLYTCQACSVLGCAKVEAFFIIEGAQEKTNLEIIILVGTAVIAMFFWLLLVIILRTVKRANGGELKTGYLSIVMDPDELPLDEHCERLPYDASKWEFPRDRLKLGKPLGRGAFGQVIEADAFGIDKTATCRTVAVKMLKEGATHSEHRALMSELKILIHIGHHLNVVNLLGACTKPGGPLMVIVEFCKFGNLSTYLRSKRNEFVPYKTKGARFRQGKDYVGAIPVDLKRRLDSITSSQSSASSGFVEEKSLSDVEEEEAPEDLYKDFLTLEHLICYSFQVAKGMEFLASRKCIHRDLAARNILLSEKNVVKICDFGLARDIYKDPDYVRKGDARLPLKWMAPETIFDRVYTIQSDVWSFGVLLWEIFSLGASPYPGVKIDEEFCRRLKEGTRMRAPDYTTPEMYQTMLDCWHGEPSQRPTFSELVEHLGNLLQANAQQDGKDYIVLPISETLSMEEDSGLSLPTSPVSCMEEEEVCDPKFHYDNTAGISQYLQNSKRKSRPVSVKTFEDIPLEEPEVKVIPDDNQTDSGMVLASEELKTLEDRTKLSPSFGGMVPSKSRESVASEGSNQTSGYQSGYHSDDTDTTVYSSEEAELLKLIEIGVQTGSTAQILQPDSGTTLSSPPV
Outline: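 First, kinase (150 ng/ml), Btn-Flt3 (500 nM), ATP (3 μM) and compound (1% DMSO) react 120 min at RT in pH 7.5 HEPES/6 mM MnCl2. Next, EDTA with Eu-anti-P-Tyr and SA-XL-665 stops it for 60 min. Finally, TR-FRET is read as RFU.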

T1 sequence (P11362 whole entry, change not shown): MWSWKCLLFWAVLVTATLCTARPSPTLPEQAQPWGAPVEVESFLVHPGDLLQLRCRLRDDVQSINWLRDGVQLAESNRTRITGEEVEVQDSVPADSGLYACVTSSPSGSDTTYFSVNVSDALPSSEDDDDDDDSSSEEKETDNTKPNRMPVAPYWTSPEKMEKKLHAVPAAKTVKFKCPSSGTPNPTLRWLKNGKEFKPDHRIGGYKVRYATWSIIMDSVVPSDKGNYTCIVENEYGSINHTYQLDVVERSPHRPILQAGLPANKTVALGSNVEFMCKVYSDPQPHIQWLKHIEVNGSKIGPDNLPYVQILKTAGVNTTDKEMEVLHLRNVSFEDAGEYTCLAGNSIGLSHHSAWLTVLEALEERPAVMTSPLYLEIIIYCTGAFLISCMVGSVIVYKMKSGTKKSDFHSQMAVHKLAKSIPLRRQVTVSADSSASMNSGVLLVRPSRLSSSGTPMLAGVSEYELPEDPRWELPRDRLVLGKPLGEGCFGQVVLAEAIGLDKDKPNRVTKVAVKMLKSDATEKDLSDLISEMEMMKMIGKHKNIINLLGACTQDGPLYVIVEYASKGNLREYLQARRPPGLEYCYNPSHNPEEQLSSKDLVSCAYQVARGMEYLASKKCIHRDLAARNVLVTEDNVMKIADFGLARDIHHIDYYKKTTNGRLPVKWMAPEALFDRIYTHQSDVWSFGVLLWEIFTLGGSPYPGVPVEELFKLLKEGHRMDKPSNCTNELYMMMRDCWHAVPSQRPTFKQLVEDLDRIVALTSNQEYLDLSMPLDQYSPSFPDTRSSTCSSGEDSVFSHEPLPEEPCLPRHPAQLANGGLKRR

COc1cc(OC)c(F)c(N(Cc2nc(Br)c[nH]2)c2ccc3ncc(-c4cnn(C)c4)nc3n2)c1 [Compound 238]
BAF3-FGFR1 (MIN IL3) pIC50 [1]: ~8.32
BAF3-FGFR4 pIC50 [2]: 8.06
IC50 (FGFR2 (h)): 2.14 nM
IC50 (FGFR1 (h)): 0.479 nM
BAF3-FGFR3 (MIN IL3) pIC50 [3]: ~8.45
IC50 (FGFR4 (h)): 1.12 nM
IC50 [4]: > 10000 nM
IC50 (FGFR3 (h)): 1.17 nM
IC50 [5]: > 10000 nM
IC50 (KDR (h)): 11.2 nM

COc1cc(OC)c(F)c(N(Cc2ncc[nH]2)c2ccc3ncc(-c4cnn(CC(C)(C)O)c4)nc3n2)c1 [Compound 240]
BAF3-FGFR1 (MIN IL3) pIC50 [1]: 8.57
BAF3-FGFR4 pIC50 [2]: 7.87
IC50 (FGFR2 (h)): 2.57 nM
IC50 (FGFR1 (h)): 0.912 nM
BAF3-FGFR3 (MIN IL3) pIC50 [3]: ~8.52
IC50 (FGFR4 (h)): 1.91 nM
IC50 [4]: > 10000 nM
IC50 (FGFR3 (h)): 1.82 nM
IC50 [5]: > 10000 nM
IC50 (KDR (h)): 15.5 nM

COc1cc(OC)c(F)c(N(CCNC(C)=O)c2ccc3ncc(-c4cnn(C)c4)nc3n2)c1 [Compound 242]
BAF3-FGFR1 (MIN IL3) pIC50 [1]: 7.35
BAF3-FGFR4 pIC50 [2]: 7.22
IC50 (FGFR2 (h)): 2.95 nM
IC50 (FGFR1 (h)): 1.17 nM
BAF3-FGFR3 (MIN IL3) pIC50 [3]: ~8.11
IC50 (FGFR4 (h)): 2.24 nM
IC50 [4]: > 10000 nM
IC50 (FGFR3 (h)): 1.86 nM
IC50 [5]: > 10000 nM
IC50 (KDR (h)): 28.2 nM

COc1cc(/N=c2\ccc3ncc(-c4cnn(C)c4)nc3n2CC2CCC(=O)N2)cc(OC)c1 (centres unmarked) [Compound 248]
BAF3-FGFR1 (MIN IL3) pIC50 [1]: 6.70
BAF3-FGFR4 pIC50 [2]: 6.25
IC50 (FGFR2 (h)): 3.63 nM
IC50 (FGFR1 (h)): 5.13 nM
BAF3-FGFR3 (MIN IL3) pIC50 [3]: 6.67
IC50 (FGFR4 (h)): 8.13 nM
IC50 [4]: > 10000 nM
IC50 (FGFR3 (h)): 1.82 nM
IC50 [5]: > 10000 nM
IC50 (KDR (h)): 20 nM

COc1cc(OC)c(F)c(N(Cc2n[nH]c(=O)o2)c2ccc3ncc(-c4cnn(C)c4)nc3n2)c1 [Compound 284]
BAF3-FGFR1 (MIN IL3) pIC50 [1]: 6.37
BAF3-FGFR4 pIC50 [2]: 6.01
IC50 (FGFR2 (h)): 2.14 nM
IC50 (FGFR1 (h)): 1.58 nM
BAF3-FGFR3 (MIN IL3) pIC50 [3]: 6.42
IC50 (FGFR4 (h)): 5.5 nM
IC50 [4]: > 10000 nM
IC50 (FGFR3 (h)): 1.05 nM
IC50 [5]: > 10000 nM
IC50 (KDR (h)): 63.1 nM
